Source: US9708336B2, “Metallo-beta-lactamase inhibitors” (priority 2014, dated 2017)
Where two headings read alike, the source gives them in different places.

Legend:
[1] = test system: Escherichia coli expressing NDM-1 (CLB30016); experiment: Antibiotic potentiation activity: synergistic concentration (MITC95) with imipenem, OD600 growth; assay type: cell-based; settings: for Escherichia coli expressing NDM-1 (CLB 30016) MITC95: concentration giving 95% inhibition of bacterial growth
Procedure: (§1) Antibiotic Potentiation Activity: Determination of Synergistic Concentration
(§2) The bacterial strains tested included the clinical strains Escherichia coli expressing NDM-1 (CLB30005, CLB30016), Serratia marcescens expressing IMP-1 (CL5741), and Klebsiella pneumoniae expressing VIM-1 (IHMA599644) Inhibitor activity was measured in the presence and absence of imipenem in a 384-well microplate.
(§3) The clinical strains CLB30016, CL5741 and IHMA599644 were grown on trypticase soy agar containing 5% sheep's blood. The clinical strain CLB30005 was grown on Mueller Hinton broth agar containing 8 ug/ml imipenem. The bacteria on agar plates were incubated at 35° C. with humidity overnight. The following day, individual colonies from each clinical strain were picked and resuspended in 5 ml saline to attain an OD600 of 0.14, 0.11, 0.15 and 0.13, for CLB30005, CLB30016, CL5741 and IHMA599644, respectively. These were further diluted 1:100 into 1.1×CAMHB and used to inoculate the test wells as described below.
(§4) Imipenem in 10 mM 3-(N-morpholino)propanesulfonic acid (MOPS, pH 7) was stored in single use aliquots at −80° C. […] On the day of the assay, 4 μl of antibiotic was added to 45 ul of bacteria followed by 1 μl of test compound and mixed by pipetting and with an orbital shaker. The concentration of antibiotic used in the assay was 4 μg/ml, or optionally 1 μg/ml. Microplates were covered and incubated at 35° C. for 22 hours to 24 hours. At the end of the incubation, absorbance was determined using a spectrophotometer.

[2] = test system: Serratia marcescens expressing IMP-1 (CL5741); experiment: as above; assay type: cell-based; settings: for Serratia marcescens expressing IMP-1 (CL5741) MITC95: concentration giving 95% inhibition of bacterial growth
Procedure: as §1, §2, §3, §4

[3] = test system: Klebsiella pneumoniae expressing VIM-1 (IHMA599644); experiment: as above; assay type: cell-based; settings: for Klebsiella pneumoniae expressing VIM-1 (IHMA 599644) MITC95: concentration giving 95% inhibition of bacterial growth
Procedure: as §1, §2, §3, §4

IMP-1 = IMP-1 (Serratia marcescens, UniProt P52699); experiment: biochemical; assay type: biochemical; settings: read-out: IMP-1 IC50
NDM-1 = NDM-1 (Klebsiella pneumoniae, UniProt C7C422); experiment: biochemical; assay type: biochemical; settings: read-out: NDM-1 IC50
VIM-1 = VIM-1 (Pseudomonas aeruginosa (strain ATCC 15692 / DSM 22644 / CIP 104116 / JCM 14847 / LMG 12228 / 1C / PRS 101 / PAO1), UniProt A0A0F7KYQ8); experiment: Enzyme activity: determination of IC50, fluorescence assay with CCF2-FA substrate (VIM-1); assay type: biochemical
[4] = (CLB30016, NDM-1), 95% growth inhibition
[5] = Serratia marcescens CL5741 (IMP-1), 95% growth inhibition
[6] = Klebsiella pneumoniae IHMA599644 (VIM-1), 95% growth inhibition
[7] = IMP-1 enzyme, CCF2-FA substrate
[8] = NDM-1 enzyme, CCF2-FA substrate
[9] = VIM-1 enzyme, CCF2-FA substrate, read-out: VIM-1 IC50
[10] = fluorescence assay with CCF2-FA substrate
[11] = fluorescence assay with CCF2-FA substrate, read-out: VIM-1 IC50
[12] = Escherichia coli expressing NDM-1 (CLB30016), 95% growth inhibition
[13] = Serratia marcescens expressing IMP-1 (CL5741), 95% growth inhibition
[14] = Klebsiella pneumoniae expressing VIM-1 (IHMA599644), 95% growth inhibition
[15] = IMP-1 enzyme, CCF2-FA fluorescence assay
[16] = NDM-1 enzyme, CCF2-FA fluorescence assay
[17] = VIM-1 enzyme, CCF2-FA fluorescence assay, read-out: VIM-1 IC50
[18] = VIM-1 IC50, VIM-1 enzyme, CCF2-FA substrate

NDM-1, sequence (C7C422 whole entry, looked up, species assumed): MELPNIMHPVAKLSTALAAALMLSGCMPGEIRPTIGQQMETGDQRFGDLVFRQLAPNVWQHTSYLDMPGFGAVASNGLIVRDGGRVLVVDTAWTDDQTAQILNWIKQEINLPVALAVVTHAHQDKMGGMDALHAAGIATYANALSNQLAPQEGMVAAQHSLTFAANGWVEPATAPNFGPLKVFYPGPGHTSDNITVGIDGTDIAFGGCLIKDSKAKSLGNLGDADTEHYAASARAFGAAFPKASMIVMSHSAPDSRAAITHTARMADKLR
IMP-1, sequence (P52699 whole entry, looked up): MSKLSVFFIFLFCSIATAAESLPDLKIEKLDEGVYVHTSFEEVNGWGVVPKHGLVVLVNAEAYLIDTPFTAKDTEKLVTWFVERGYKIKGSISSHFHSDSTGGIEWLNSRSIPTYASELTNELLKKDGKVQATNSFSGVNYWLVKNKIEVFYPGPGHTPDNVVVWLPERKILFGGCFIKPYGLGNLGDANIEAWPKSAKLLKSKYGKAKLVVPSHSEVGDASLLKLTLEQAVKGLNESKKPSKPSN

| Compound | Escherichia coli MITC95 [1, 4] [µM] | Serratia marcescens MITC95 [2, 5] [µM] | Klebsiella pneumoniae MITC95 [3, 6] [µM] | IC50 (IMP-1; [7]) [nM] | IC50 (NDM-1; [8]) [nM] | IC50 (VIM-1; [9]) [nM] | further results |
| --- | --- | --- | --- | --- | --- | --- | --- |
| N=C(N)N1CC(c2ccc(-c3ccc(CC4CCNCC4)c(S(N)(=O)=O)c3-c3nn[nH]n3)cc2)C1 [Example 603, 3-[4-[4-(4-piperidylmethyl)-3-sulfamoyl-2-(2H-tetrazol-5-yl)phenyl]phenyl]azetidine-1-carboxamidine] | 3.125 | 1.563 | 1.563 | 31.9 | 21.6 | 4.73 |  |
| NS(=O)(=O)c1c(C(F)(F)F)ccc(-c2ccc(N3CCNCC3)cc2)c1-c1nnn[nH]1 [Example 717, 4′-piperazin-1-yl-2-(1H-tetrazol-5-yl)-4-(trifluoromethyl)biphenyl-3-sulfonamide] | 1.563 | 3.125 | 3.125 | 2.62 | 1.64 | 0.598 |  |
| Nc1nccc(-c2cccc(-c3ccc(C(F)(F)F)c(S(N)(=O)=O)c3-c3nnn[nH]3)c2)n1 [Example 753, 3′-(2-aminopyrimidin-4-yl)-2-(1H-tetrazol-5-yl)-4-(trifluoromethyl)biphenyl-3-sulfonamdie] |  |  |  |  |  |  | Escherichia coli MITC95 ([1]; CLB30016 (NDM-1), 95% inhibition of bacterial growth): 12.5 µM; Serratia marcescens MITC95 ([2]; CL5741 (IMP-1), 95% inhibition of bacterial growth): 12.5 µM; Klebsiella pneumoniae MITC95 ([3]; IHMA599644 (VIM-1), 95% inhibition of bacterial growth): 100 µM; IC50 (IMP-1; [10]): 2.02 nM; IC50 (NDM-1; [10]): 1.01 nM; IC50 (VIM-1; [11]): 0.754 nM |
| CC1(O)CN(c2ccc(-c3cccc(S(N)(=O)=O)c3-c3nnn[nH]3)cn2)C1 [Example 635, 3-[6-(3-hydroxy-3-methyl-azetidin-1-yl)-3-pyridyl]-2-(1H-tetrazol-5-yl)benzenesulfonamide] | 2.148 | 7.813 | 112.5 | 91.5 | 4.92 | 258 |  |
| CN(C)CCCN(C)Cc1ccc(-c2cccc(S(N)(=O)=O)c2-c2nnn[nH]2)cc1 [Example 368, 4′-({[3-(dimethylamino)propyl](methyl)amino}methyl)-2-(1H-tetrazol-5-yl)biphenyl-3-sulfonamide] |  |  |  |  |  |  | Escherichia coli MITC95 [1, 12]: 1.563 µM; Serratia marcescens MITC95 [2, 13]: 9.375 µM; Klebsiella pneumoniae MITC95 [3, 14]: >200 µM; IC50 (IMP-1; [15]): 417 nM; IC50 (NDM-1; [16]): 23.4 nM; IC50 (VIM-1; [17]): 1680 nM |
| CN(C)C1(C)CN(c2ccc(-c3cccc(S(N)(=O)=O)c3-c3nnn[nH]3)cn2)C1 [Example 625, 3-[6-[3-(dimethylamino)-3-methyl-azetidin-1-yl]-3-pyridyl]-2-(1H-tetrazol-5-yl)benzenesulfonamide] | 2.344 | 12.5 | >200 | 203 | 37 | 1350 |  |
| NCCc1ccc(-c2ccc(C(F)(F)F)c(S(N)(=O)=O)c2-c2nnn[nH]2)cc1 [Example 707, 4′-(2-aminoethyl)-2-(1H-tetrazol-5-yl)-4-(trifluoromethyl)biphenyl-3-sulfonamide] | 3.125 | 6.25 | 1.563 | 6.67 | 5.59 | 0.249 |  |
| NC(=O)c1cc2cccc(-c3ccc(C(F)(F)F)c(S(N)(=O)=O)c3-c3nn[nH]n3)c2[nH]1 [Example 528, 7-(3-Sulfamoyl-2-(2H-tetrazol-5-yl)-4-(trifluoromethyl)phenyl)-1H-indole-2-carboxamide] | 1.563 | 3.125 | 12.5 | 0.425 | 0.0248 | 0.146 |  |
| NS(=O)(=O)c1c(C(F)(F)F)ccc(-c2cccc3c2OCCN3)c1-c1nnn[nH]1 [Example 724, 3-(3,4-dihydro-2H-1,4-benzoxazin-8-yl)-2-(1H-tetrazol-5-yl)-6-(trifluoromethyl)benzenesulfon-amide] | 6.25 | 6.25 | 12.5 | 2.44 | 1.15 | 0.862 |  |
| Nc1nc2ccc(-c3ccc(C(F)(F)F)c(S(N)(=O)=O)c3-c3nnn[nH]3)cc2s1 [Example 549, 3-(2-amino-1,3-benzothiazol-6-yl)-2-(1H-tetrazol-5-yl)-6-(trifluoromethyl)benzenesulfonamide] | 1.563 | 3.125 | 6.25 | 0.472 | 0.256 |  | IC50 (VIM-1; [18]): 0.0629 nM |
| NS(=O)(=O)c1cccc(CCc2ccccn2)c1-c1nnn[nH]1 [Example 144, 3-(2-pyridin-2-ylethyl)-2-(1H-tetrazol-5-yl)benzenesulfonamide] |  |  |  |  |  |  | Escherichia coli expressing NDM-1 (CLB 30016) MITC95 [1]: 3.125 µM; Serratia marcescens expressing IMP-1 (CL5741) MITC95 [2]: 200 µM; Klebsiella pneumoniae expressing VIM-1 (IHMA 599644) MITC95 [3]: >200 µM; IC50 (IMP-1; [10]): 4500 nM; IC50 (NDM-1; [10]): 121 nM; IC50 (VIM-1; [11]): 1540 nM |
| NS(=O)(=O)c1c(C(F)(F)F)ccc([C@H]2CC[C@H](NC3CC4CNCCN4C3)CC2)c1-c1nnn[nH]1 (stereo partly drawn) [Example 686, 3-[4-(octahydropyrrolo[1,2-a]pyrazin-7-ylamino)cyclohexyl]-2-(1H-tetrazol-5-yl)-6-(trifluoromethyl)benzene sulfonamide] | 1.563 | 6.25 | 12.5 | 31.7 | 9.53 |  | IC50 (VIM-1; [18]): 15.7 nM |
| NCCCN1CCC(c2ccc(-c3cccc(S(N)(=O)=O)c3-c3nnn[nH]3)cc2)CC1 [Example 613, 3-[4-[1-(3-aminopropyl)-4-piperidyl]phenyl]-2-(1H-tetrazol-5-yl)benzenesulfonamide] | 0.25 | 0.543 | 18.75 | 36.3 | 14.1 | 253 |  |
| NS(=O)(=O)c1cccc(-c2ccc(CNCCc3c[nH]cn3)cc2)c1-c1nnn[nH]1 [Example 384, 4′-({[2-(1H-imidazol-4-yl)ethyl]amino}methyl)-2-(1H-tetrazol-5-yl)biphenyl-3-sulfonamide] |  |  |  |  |  |  | Escherichia coli MITC95 [1, 12]: 1.953 µM; Serratia marcescens MITC95 [2, 13]: 4.688 µM; Klebsiella pneumoniae MITC95 [3, 14]: 50 µM; IC50 (IMP-1; [15]): 293 nM; IC50 (NDM-1; [16]): 13.6 nM; IC50 (VIM-1; [17]): 225 nM |
| NS(=O)(=O)c1c(C(F)(F)F)ccc(-c2ccc(C3CCNC3)cc2)c1-c1nn[nH]n1 (stereo not drawn) [Example 443, 4′-(pyrrolidin-3-yl)-2-(2H-tetrazol-5-yl)-4-(trifluoromethyl)-[1,1′-biphenyl]-3-sulfonamide] |  |  |  |  |  |  | Escherichia coli MITC95 [1, 12]: 0.7734 µM; Serratia marcescens MITC95 [2, 13]: 0.09375 µM; Klebsiella pneumoniae MITC95 [3, 14]: 0.8906 µM; IC50 (IMP-1; [15]): 1.34 nM; IC50 (NDM-1; [16]): 0.909 nM; IC50 (VIM-1; [17]): 0.497 nM |
| NS(=O)(=O)c1cccc(-c2cnc(NCCO)nc2)c1-c1nnn[nH]1 [Example 125, 3-(2-((2-hydroxyethyl)amino)pyrimidin-5-yl)-2-(1H-tetrazol-5-yl)benzenesulfonamide] |  |  |  |  |  |  | Escherichia coli expressing NDM-1 (CLB 30016) MITC95 [1]: 1.953 µM; Serratia marcescens expressing IMP-1 (CL5741) MITC95 [2]: 9.375 µM; Klebsiella pneumoniae expressing VIM-1 (IHMA 599644) MITC95 [3]: 25 µM; IC50 (IMP-1; [10]): 326 nM; IC50 (NDM-1; [10]): 6.55 nM; IC50 (VIM-1; VIM-1 IC50, fluorescence assay with CCF2-FA substrate): 172 nM |
| Nc1nc2cc(-c3ccc(CC4CNC4)c(S(N)(=O)=O)c3-c3nn[nH]n3)ccc2[nH]1 [Example 611, 3-(2-amino-3H-benzo[d]imidazol-5-yl)-6-(azetidin-3-ylmethyl)-2-(2H-tetrazol-5-yl)benzenesulfonamide] | 0.3906 | 12.5 | 1.563 | 344 | 17.7 | 20.1 |  |
